Experimental data published in article PMC6900016, “Synthesis of Indomorphan Pseudo‐Natural Product Inhibitors of Glucose Transporters GLUT‐1 and ‐3” (Angewandte Chemie (International Ed. in English), 2019).

Legend:
Experiment in all cases: cells
Set-up in all cases: Cell growth inhibition, sulforhodamine B total protein staining
[1] = system: IGROV1; conditions: Homo sapiens, IGROV-1; 72 h growth; read-out: Cell growth inhibition IC50/µM
Protocol: (§1) Cell panel profiling A panel of 94 cell lines was exposed to Glupin for 72 h to assess the influence on cell growth (Oncolead, Germany). Cell growth was determined using sulforhodamine B assay. Measurements were performed using a total protein staining protocol. Briefly, after treatement cells were fixed addition of 10% TCA (for adherent growing cells) or 50% TCA (for semi-adherent growing cells or cells growing in suspension). After an incubation at 4°C for 1 h, plates were washed twice with 400 μl of deionized water and dried. Cells were then stained with 100 μl of 0.04% wt/v sulforhodamine B. Plates were incubated at room temperature for at least 30 min and washed six times with 1% acetic acid to remove unbound stain. […] This effect was much stronger at a physiological glucose concentration (5 mM; Figure 5 b,c). […] IC50 values lower than 300 nM were obtained for more than 20 cell lines, whereas 24 cell lines were not affected by the compound, among them the peripheral blood mononuclear control cells (PBMCs). Sensitivity to Glupin was detected across various tissue types (Table S6).

[2] = system: MIAPACA2; conditions: Homo sapiens, MIA PaCa-2; 72 h growth; read-out: Cell growth inhibition IC50/µM
Protocol: as §1

[3] = system: OVCAR4; conditions: Homo sapiens, OVCAR-4; 72 h growth; read-out: Cell growth inhibition IC50/µM
Protocol: as §1

[4] = system: MINO; conditions: Homo sapiens, MINO; 72 h growth; read-out: Cell growth inhibition IC50/µM
Protocol: as §1

[5] = system: HT29; conditions: Homo sapiens, HT-29; 72 h growth; read-out: Cell growth inhibition IC50/µM
Protocol: as §1

[6] = system: SKHEP1; conditions: Homo sapiens, SK-HEP1; 72 h growth; read-out: Cell growth inhibition IC50/µM
Protocol: as §1

[7] = system: A549; conditions: Homo sapiens, A549; 72 h growth; read-out: Cell growth inhibition IC50/µM
Protocol: as §1

[8] = system: C33A; conditions: Homo sapiens, C-33-A; 72 h growth; read-out: Cell growth inhibition IC50/µM
Protocol: as §1

[9] = system: NCIH82; conditions: Homo sapiens, NCI-H82; 72 h growth; read-out: Cell growth inhibition IC50/µM
Protocol: as §1

[10] = system: HS729; conditions: 72 h growth; read-out: Cell growth inhibition IC50/µM
Protocol: as §1

[11] = system: COLO205; conditions: Homo sapiens, COLO 205; 72 h growth; read-out: Cell growth inhibition IC50/µM
Protocol: as §1

[12] = system: HL60; conditions: Homo sapiens, HL-60; 72 h growth; read-out: Cell growth inhibition IC50/µM
Protocol: as §1

[13] = system: CACO2; conditions: Homo sapiens, Caco-2; 72 h growth; read-out: Cell growth inhibition IC50/µM
Protocol: as §1

[14] = system: CAKI1; conditions: Homo sapiens, CAKI-1; 72 h growth; read-out: Cell growth inhibition IC50/µM
Protocol: as §1

[15] = system: OVCAR3; conditions: Homo sapiens, OVCAR-3; 72 h growth; read-out: Cell growth inhibition IC50/µM
Protocol: as §1

[16] = system: WSUNHL; conditions: Homo sapiens, WSU-NHL; 72 h growth; read-out: Cell growth inhibition IC50/µM
Protocol: as §1

[17] = system: RDES; conditions: RD-ES; 72 h growth; read-out: Cell growth inhibition IC50/µM
Protocol: as §1

[18] = system: CALU6; conditions: Homo sapiens, Calu-6; 72 h growth; read-out: Cell growth inhibition IC50/µM
Protocol: as §1

[19] = system: SF268; conditions: Homo sapiens, SF-268; 72 h growth; read-out: Cell growth inhibition IC50/µM
Protocol: as §1

[20] = system: MDAMB468; conditions: Homo sapiens, MDA-MB-468; 72 h growth; read-out: Cell growth inhibition IC50/µM
Protocol: as §1

[21] = system: LOVO; conditions: Homo sapiens, LoVo; 72 h growth; read-out: Cell growth inhibition IC50/µM
Protocol: as §1

[22] = system: IMR90; conditions: Homo sapiens, IMR-90; 72 h growth; read-out: Cell growth inhibition IC50/µM
Protocol: as §1

[23] = system: UMUC3; conditions: Homo sapiens, UMUC3; 72 h growth; read-out: Cell growth inhibition IC50/µM
Protocol: as §1

CCOC(=O)Cn1c2c(c3ccccc31)C[C@@H]1C[C@H]2C(OC)CN1C(=O)c1cccnc1SC (single isomer, unassigned; (+)) [(+)-5a, Glupin]
IC50 [1]: 1.76 µM | IC50 [2]: 0.061 µM | IC50 [3]: 1.41 µM | IC50 [4]: 1.77 µM | IC50 [5]: 3.35 µM | IC50 [6]: 0.569 µM | IC50 [7]: 0.32 µM | IC50 [8]: 1.5 µM | IC50 [9]: 1.17 µM | IC50 [10]: > 30 µM | IC50 [11]: 3.73 µM | IC50 [12]: 0.112 µM | IC50 [13]: 3.51 µM | IC50 [14]: 0.805 µM | IC50 [15]: > 30 µM | IC50 [16]: 0.062 µM | IC50 [17]: 3.71 µM | IC50 [18]: 0.538 µM | IC50 [19]: 0.37 µM | IC50 [20]: 4.32 µM | IC50 [21]: 5.41 µM | IC50 [22]: > 30 µM | IC50 [23]: 0.032 µM
